Assay [1] concerns Lindernia pyxidaria. The assay can be described thus: Test Example 6: herbicidal effect test by application during growth period of paddy rice (low dose). The format is in vivo. To be noted: 7.5 g per 10 ares, applied seven days after sowing, flooded pots, 14 days after application, read-out: weed inhibition rate. Summed up: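 Paddy-soil pots, flooded ~3 cm after sowing weed seeds at 0-1 cm depth, greenhouse-grown. Seven days after sowing, diluted emulsifiable concentrate applied by dropper at 7.5 g active ingredient per 10 ares. Weed inhibition rate (%) scored 14 days after application, in duplicate.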

Assay [2] relates to Chenopodium album. The assay is described as follows: Test Example 7: herbicidal effect test by soil application in upland field (low dose). Type of assay: in vivo. To be noted: 7.5 g per 10 ares, sprayed one day after sowing, 14 days after application, read-out: weed inhibition rate. The method in brief:
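Read-out: weed inhibition rate (%) at 14 d post-treatment, duplicate pots per concentration. Seeds sown in the top 1 cm of upland alluvial loam; emulsifiable concentrate diluted in water and sprayed on the soil surface 1 d after sowing at 7.5 g a.i./10 a (100 L/10 a spray volume).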

For orientation: inhibition means the percentage by which the read-out fell short of the control. On to `CC(C)[C@]12C[C@@H](OCc3ccccc3F)[C@](C)(CC1OCC1CC1)O2` (mixture of isomers) [1-921, (1S,2R,4R,SR)-5-(cyclopropylmethoxy)-2-[(2-fluorophenyl)methoxy]-1-methyl-4-isopropyl-7-oxabicyclo[2.2.1]heptane], for which the inhibition at 75 g/ha in assay [1] and in assay [2] was ≥ 80% in each case.

Regarding `CC(C)[C@]12C[C@@H](OCc3c(F)cccc3F)[C@](C)(C[C@@H]1F)O2` [1-7, (1S,2R,4R,5S)-2-((2,6-difluorobenzyl)oxy)-5-fluoro-4-isopropyl-1-methyl-7-oxabicyclo[2.2.1]heptane], the inhibition at 75 g/ha in assay [2] is ≥ 80%.

Take `C=CCO[C@@H]1C[C@]2(C)O[C@@]1(C(C)C)C[C@H]2OCc1ccccc1F` [1-930, (1S,2R,4R,5R)-2-[(2-fluorophenyl)methoxy]-1-methyl-4-isopropyl-5-prop-2-enoxy-7-oxabicyclo[2.2.1]heptane]: the inhibition at 75 g/ha in assay [1] and in assay [2] was ≥ 80% throughout.

Regarding `C#CCO[C@@H]1C[C@]2(C)O[C@@]1(C(C)C)C[C@H]2OCc1ccccc1F` [1-931, (1S,2R,4R,5R)-2-[(2-fluorophenyl)methoxy]-1-methyl-4-isopropyl-5-prop-2-ynoxy-7-oxabicyclo[2.2.1]heptane], the inhibition at 75 g/ha in assay [1] was ≥ 80%.

As for `CC(C)[C@]12C[C@@H](OCc3c(F)cccc3F)[C@](C)(CC1=O)O2` [2-20, (1R,4S,5R)-5-((2,6-difluorobenzyl)oxy)-1-isopropyl-4-methyl-7-oxabicyclo[2.2.1]heptan-2-one], the inhibition at 75 g/ha in assay [1] is ≥ 80%.

For the compound `C=C1C[C@]2(C)O[C@@]1(C(C)C)C[C@H]2OCc1ccccc1C` [2-72, (1R,4S,5R)-1-isopropyl-4-methyl-5-((2-methylbenzyl)oxy)-2-methylene-7-oxabicyclo[2.2.1]heptane], the inhibition at 75 g/ha in assay [2] is ≥ 80%.

In the case of `C=C1C[C@]2(C)O[C@@]1(C(C)C)C[C@H]2OCc1ccccc1F` [2-88, (1R,4S,5R)-5-((2-fluorobenzyl)oxy)-1-isopropyl-4-methyl-2-methylene-7-oxabicyclo[2.2.1]heptane], the inhibition at 75 g/ha in assay [2] was ≥ 80%.

The record behind these values is EP4707280A1, “1,4-CINEOLE DERIVATIVE AND INTERMEDIATE THEREOF, HERBICIDE CONTAINING SAID DERIVATIVE AS ACTIVE INGREDIENT, METHOD FOR USING HERBICIDE, AND METHOD FOR PREPARING AGROCHEMICAL COMPOSITION” (HOKKO CHEMICAL INDUSTRY CO., LTD., priority 2023, dated 2024).
